Results taken from patent publication US9018162B2, “Methods for rapidly treating severe hypoglycemia” (Xeris Pharmaceuticals, Inc., priority 2013, dated 2015).

Tests used:
[1] = Freezing point depression of DMSO solutions by DSC; format: physicochemical; conditions: DSC scan
Experimental: Using PerkinElmer Instruments PYRIS Diamond Differential Scanning calorimetry (“DSC”), samples were cooled to −40° C. and heated to 40° C. at 8° C. per minute for screening purposes.

[2] = Effect of pH on insulin solubility in DMSO (visual, A630); format: physicochemical; conditions: pH memory of 7, some lower-concentration solutions e.g. 10 mg/mL
Experimental: These solutions were lyophilized to dryness ([…]) using a conservative cycle and reconstituted to various nominal concentrations in DMSO. Solubility was measured by visual inspection for clarity and turbidity via A630.

| temperature of crystallization (Tc) [1] [°C] | Compound | period to slowly dissolve to a clear solution [2] |
| --- | --- | --- |
| ~18 | C[S+](C)[O-] [neat DMSO, dimethylsulfoxide] |  |
|  | insulin | about 24 hours |
